Reference: patent publication US20250161245A1, “A MIXTURE OF UREA, BIURET AND N-CONTAINING BY-PRODUCTS CREATED DURING BIURET PRODUCTION AS A DIETARY NON-PROTEIN NITROGEN-SOURCE FOR RUMINANTS AND USES THEREOF” (Yara International ASA, priority 2022, published 2025)

Assays:
[1] = animal performance of steers with NPN supplementation (Example 3); format: in vivo, crossbred yearling steers
rumen microbes = assay: microbial protein synthesis, 15N batch culture (Example 4); format: cell-based, Angus crossbred steers; conditions: 24 hours of incubation
Procedure: The in vitro incubations were conducted on three separate days (replicates). A representative sample of digesta was collected from different places in the rumen of ruminally cannulated steers and strained through 4 layers of cheesecloth, placed in pre-warmed thermos containers, and transported to the laboratory within 30 minutes after the collection. In the laboratory, the ruminal fluid from the two steers was maintained under constant CO2-flux and was combined in equal proportions. This combined ruminal fluid was mixed with McDougall's buffer (McDougall, 1948) with and without 0.077 g/liter of 10 wt. % ammonium sulfate enriched with ^15N in relation 1:4, and it was used as an inoculum. Two bottles of 500 ml fitted with a side arm and a rubber septum were incubated per treatment. […] At the end of the 24 hours incubation, the final pH was recorded, the bottles were placed on ice to prevent further microbial fermentation and two 10-ml samples were collected and acidified by adding 20 μl of a 20 vol/vol % of H2SO4-solution and were frozen at minus 20° C. until further analysis. […]
The total nitrogen (N) and the isotopic supplement were measured in the whole content and the bacterial pellet by an isotopic ratio mass spectrometry using a Vario Micro cube from Elementar Analyzer System GmbH. […]

beef steers = assay: enteric methane emission, SF6 tracer technique (Example 3); format: in vivo, crossbred yearling steers
Procedure: Methane emission was measured in all steers for five consecutive days using the SF6 tracer technique (Johnson et al., 1994; Henry et al., 2020). In this technique, the steers received a calibrated permeation tube filled with SF6 (3.1 g+0.2 g) before the measurement period. The average SF6 release rate was […]+1.1 mg/d. After five days of training, a vacuum gas collector canister was attached to each animal to collect a sample of daily gas production. Each day at the same hour, a new vacuum canister was replaced throughout the five days of the measurement period. Five collection canisters were used to determine environmental CH4 and SF6 concentrations. A gas sample was taken from each canister and conserved in 120 ml bottles for posterior analysis of CH4 and SF6 using gas chromatography. For the current experiment, only steers with a least three successful days of collection and measurement were considered in the final analysis. Gas samples were analyzed by gas chromatography (Agilent 7820A GC, Agilent Technologies, Palo Alto, CA). A flame ionization and electron capture detector were used for CH4 and SF6 analysis, respectively, with a capillary column (Plot Fused Silica 25 m×0.32 mm, Coating Molsieve 5A, Varian CP7536, Varian Inc., Lake Forest, CA). The injector, column and detector temperatures for CH4 analysis were 80, 160 and 200° C., respectively. For SF6, temperatures were 50, 30 and 300° C. for the injector, the column and the detector, respectively. The carrier gas for CH4 and SF6 was N2. The emissions of CH4 were calculated according to the next equation:
[formula] • QCH4=CH4 emissions per animal (g/day) • QSF6=SF6 release rate (mg/day) • [CH4]γ=the concentration of CH4 in the animals' collection canister • [CH4]β=the concentration of CH4 in the environmental collection canister • [SF6]γ=the concentration of SF6 in the animals' collection canister • [SF6]β=the concentration of SF6 in the environmental collection canister

ruminal fluid = assay: in vitro methane production, batch culture (Example 4); format: cell-based, Angus crossbred steers; conditions: corn silage-based diet, 24 hours incubation
Procedure: The amount of methane produced was determined by measuring total gas production and the contribution of methane to it. The production of gas was recorded using an Ankom Gas Monitoring System from Ankom Technologies. This system was adapted to 500 ml bottles during the entire fermentation process. The kinetics of the production was fitted to a Gompertz model to determine the rate of the total maximal gas production (M), fractional rate of gas produced (kf) and lag phase (L). A gas subsample was analyzed to measure methane concentration and calculate the total methane production during the fermentation. The concentration of methane was determined using a gas chromatograph Agilent 7820 GC from Agilent Technologies with flame ionization and a capillary column (Plot Fused Silica 25 m×0.32 mm, coating Molsieve 5A, Varian CP 7536 from Varian Inc.).

[2] = five consecutive days, SF6 tracer

SMILES: NC(N)=O [Urea, urea]
- ADG ([1]; days 0-14): 0.78 kg
- ADG ([1]; days 0-28): 0.81 kg
- ADG ([1]; days 0-42): 1.02 kg
- Bacteria N (rumen microbes): 67.34 mg
- EMPS (rumen microbes): 34.46 g of bacteria N/kg of OM truly digested
- DM intake (beef steers; Table 7 (methane measurement)): 6.08 kg/day
- Methane emission (g/kg ADG) (beef steers; [2]): 213.79 g/kg ADG
- Methane emission (g/kg DMI) (beef steers; [2]): 36.59 g/kg DMI
- Methane emission (g/kg OMI) (beef steers; [2]): 38.68 g/kg OMI
- methane production per g organic matter digested (ruminal fluid): 6.86 mM/g OMd
- methane production per g organic matter incubated (ruminal fluid): 1.23 mM/g OMi
